Assay results as given in patent US9266876B2 (Actelion Pharmaceuticals Ltd., priority 2012, dated 2016).

Key:
[1] = tested on: tumor cells; conditions: administration of AMG487; Pradelli, E. et al. Int J Cancer 2009, 125, 2586; cited from earlier work
[2] = molecular target: human CXCR3A (Homo sapiens (Human), UniProt P49682); test: FLIPR assay; format: cell-based; conditions: CHO-K1 cells expressing the human CXCR3A coupled to Galpha(16); CXCL10 agonist 20 nM; Fluo-4-AM fluorescence; mean values if determined several times
Summary of the method: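 CHO-K1 cells expressing CXCR3A coupled to Gα16 were loaded with Fluo-4-AM for 1 h in Hepes-buffered HBSS, pH 7.4, with 5 mM probenecid. Compound dilutions were added on the FLIPR, followed by CXCL10 (added as a 20 nM solution). Baseline-subtracted peak fluorescence was fitted to a single-site curve for IC50.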

[3] = molecular target: CXCR3 (Homo sapiens (Human), UniProt P49682); test: Receptor internalization assay; format: cell-based; conditions: human whole blood; final CXCL10 concentration 9 nM; 30 min 37° C.; CXCR3 cell surface expression on CD3 positive cells, flow cytometer; read-out: Internalization IC50
Summary of the method: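 In human whole blood, compounds were incubated with CXCL10 (9 nM final) for 30 min at 37 °C to drive receptor internalization, then stained with anti-CXCR3/CD3 antibodies and lysed of red cells. Flow cytometry measured mean surface CXCR3 fluorescence on CD3+ cells, and IC50 came from single-site dose-response fits.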

human CXCR3A, sequence (P49682 whole entry): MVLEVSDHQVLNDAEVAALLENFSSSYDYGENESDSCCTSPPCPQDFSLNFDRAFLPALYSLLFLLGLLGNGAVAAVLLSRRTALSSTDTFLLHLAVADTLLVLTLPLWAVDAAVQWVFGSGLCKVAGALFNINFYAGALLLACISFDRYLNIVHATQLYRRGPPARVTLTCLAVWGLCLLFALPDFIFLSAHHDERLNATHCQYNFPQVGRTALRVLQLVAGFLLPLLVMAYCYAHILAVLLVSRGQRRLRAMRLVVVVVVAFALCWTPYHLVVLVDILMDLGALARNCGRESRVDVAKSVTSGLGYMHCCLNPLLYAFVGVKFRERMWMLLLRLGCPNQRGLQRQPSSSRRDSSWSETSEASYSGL
CXCR3, sequence (P49682 whole entry): as above

Row | SMILES | IC50 [2] [nM] | IC50 [3] [nM] | metastasis of tumor cells to the lungs [1]
1 | CCOc1ccc(-n2c([C@@H](C)N(Cc3cccnc3)C(=O)Cc3ccc(OC(F)(F)F)cc3)nc3ncccc3c2=O)cc1 [AMG487] | – | – | could limit the metastasis of tumor cells to the lungs
2 | Cn1c(=O)n(CC(=O)N2CCN(c3scnc3-c3nc4ccc(OC(F)(F)F)cc4[nH]3)CC2)c2ccccc21 [Example 74, 1-Methyl-3-(2-oxo-2-{4-[4-(6-trifluoromethoxy-1H-benzoimidazol-2-yl)-thiazol-5-yl]-piperazin-1-yl}-ethyl)-1,3-dihydro-benzoimidazol-2-one] | 2 | 1040 | –
3 | Cc1nc(C)n(CC(=O)N2CCN(c3sc(C(F)(F)F)nc3-c3nc4ccc(OC5CNC5)cc4[nH]3)C[C@H]2C)n1 [Example 242, 1-((R)-4-{4-[6-(Azetidin-3-yloxy)-1H-benzoimidazol-2-yl]-2-trifluoromethyl-thiazol-5-yl}-2-methyl-piperazin-1-yl)-2-(3,5-dimethyl-[1,2,4]triazol-1-yl)-ethanone] | 4 | 438 | –
4 | Cc1cc(CC(=O)N2CCN(c3sc(C(F)(F)F)nc3-c3nc4ccccc4[nH]3)C[C@H]2C)cc(C)n1 [Example 219] | 4 | 1460 | –
5 | C[C@@H]1CN(c2scnc2-c2nc3ccc(C4CC4)cc3[nH]2)CCN1C(=O)Cn1cnc2cccnc21 [Example 162, 1-{(R)-4-[4-(6-Cyclopropyl-1H-benzoimidazol-2-yl)-thiazol-5-yl]-2-methyl-piperazin-1-yl}-2-imidazo[4,5-b]pyridin-3-yl-ethanone] | 1 | 181 | –
6 | O=C(Cn1cnc2cccnc21)N1[C@@H]2CC[C@H]1CN(c1scnc1-c1nc3ccccc3[nH]1)C2 [Example 79, rac-1-{(1S*,5R*)-3-[4-(1H-Benzoimidazol-2-yl)-thiazol-5-yl]-3,8-diaza-bicyclo[3.2.1]oct-8-yl}-2-imidazo[4,5-b]pyridin-3-yl-ethanone] | 6 | 828 | –
7 | Cc1nc(C)n(CC(=O)N2CCN(c3sc(C(F)(F)F)nc3-c3nc4ccc(N5CCOCC5)cc4[nH]3)C[C@H]2C)n1 [Example 233, 2-(3,5-Dimethyl-[1,2,4]triazol-1-yl)-1-{(R)-2-methyl-4-[4-(6-morpholin-4-yl-1H-benzoimidazol-2-yl)-2-trifluoromethyl-thiazol-5-yl]-piperazin-1-yl}-ethanone] | 6 | 376 | –

The next lines start with results.

Row | IC50 [2] [nM] | IC50 [3] [nM] | SMILES | metastasis of tumor cells to the lungs [1]
8 | 6 | 639 | O=C(Cn1c(=O)[nH]c2cccnc21)N1CCN(c2scnc2-c2nc3ccccc3[nH]2)CC1 [Example 71, 3-(2-{4-[4-(1H-Benzoimidazol-2-yl)-thiazol-5-yl]-piperazin-1-yl}-2-oxo-ethyl)-1,3-dihydro-imidazo[4,5-b]pyridin-2-one] | –
9 | 1 | 111 | CC(O)c1ccc2[nH]c(-c3nc(C(F)(F)F)sc3N3CCN(C(=O)Cn4cnc5cccnc54)[C@H](C)C3)nc2c1 (stereo partly drawn) [Example 166, 1-((R)-4-{4-[5-(1-Hydroxy-ethyl)-1H-benzoimidazol-2-yl]-2-trifluoromethyl-thiazol-5-yl}-2-methyl-piperazin-1-yl)-2-imidazo[4,5-b]pyridin-3-yl-ethanone] | –
10 | 6 | 6560 | C[C@@H]1CN(c2sc(C(F)(F)F)nc2-c2nc3ccccc3[nH]2)CCN1C(=O)Cc1nnc(-c2ccccc2)o1 [Example 196, 1-{(R)-4-[4-(1H-Benzoimidazol-2-yl)-2-trifluoromethyl-thiazol-5-yl]-2-methyl-piperazin-1-yl}-2-(5-phenyl-[1,3,4]oxadiazol-2-yl)-ethanone] | –
11 | 1 | 126 | CC(C)c1ccc2nc(-c3ncsc3N3CCN(C(=O)Cn4cnc5cccnc54)[C@H](C)C3)[nH]c2c1 [Example 88, 2-Imidazo[4,5-b]pyridin-3-yl-1-{(R)-4-[4-(6-isopropyl-1H-benzoimidazol-2-yl)-thiazol-5-yl]-2-methyl-piperazin-1-yl}-ethanone] | –
12 | 1 | 2420 | CC[C@@H]1CN(c2scnc2-c2nc3ccccc3[nH]2)CCN1C(=O)Cn1ccc2cccnc21 [Example 18, 1-{(R)-4-[4-(1H-Benzoimidazol-2-yl)-thiazol-5-yl]-2-ethyl-piperazin-1-yl}-2-pyrrolo[2,3-b]pyridin-1-yl-ethanone] | –
13 | 4 | 737 | Cc1ncnn1CC(=O)N1CCN(c2sc(C(F)(F)F)nc2-c2nc3ccccc3[nH]2)C[C@H]1C [Example 212, 1-{(R)-4-[4-(1H-Benzoimidazol-2-yl)-2-trifluoromethyl-thiazol-5-yl]-2-methyl-piperazin-1-yl}-2-(5-methyl-[1,2,4]triazol-1-yl)-ethanone] | –
